Measurements published in PMC4957924, “Prediction and verification of novel peptide targets of protein tyrosine phosphatase 1B” (Bioorganic & Medicinal Chemistry, 2016).
Where two headings read alike, the source gives them in different places.

What was measured:
[1] = target: T1, PTP1B (Homo sapiens, UniProt P18031); test: in vitro EnzChek phosphate assay of PTP1B against synthesized phosphopeptides; format: biochemical; settings: for kcat/Km / Km: peptide as substrate of PTP1B, value ± spread as printed; for recognition as substrate by PTP1B (in words): compared with Src positive control peptide
T1 construct: PTP1B was expressed and purified as described previously; made in house
T1 sequence (P18031 1-435): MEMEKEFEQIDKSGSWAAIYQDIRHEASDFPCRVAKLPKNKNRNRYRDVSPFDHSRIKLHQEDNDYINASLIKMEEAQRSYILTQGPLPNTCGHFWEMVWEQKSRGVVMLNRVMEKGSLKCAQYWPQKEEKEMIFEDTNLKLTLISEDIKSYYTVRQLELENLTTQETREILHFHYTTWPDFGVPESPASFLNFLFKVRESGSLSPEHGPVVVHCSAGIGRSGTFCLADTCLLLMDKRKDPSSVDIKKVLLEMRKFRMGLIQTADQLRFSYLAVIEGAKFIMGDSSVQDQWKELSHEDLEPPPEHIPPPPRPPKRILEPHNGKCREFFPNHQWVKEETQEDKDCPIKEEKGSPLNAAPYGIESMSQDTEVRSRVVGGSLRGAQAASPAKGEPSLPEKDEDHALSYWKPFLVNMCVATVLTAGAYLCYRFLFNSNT
Experimental: (§1) To test if the predicted phosphopeptides would indeed be in vitro substrates of PTP1B, we synthesized six of these peptides. The two peptides from JAK1 were not synthesized and tested because the sequences are highly similar to the ones of the known substrates JAK2[20] and MET[21] that were also detected by our procedure. […] (Table 1).
PTP1B was expressed and purified as described previously.[3]
The in vitro EnzChek phosphate assay was carried out with the commercial kit from Molecular Probes as described previously.[23]

[2] = Solubility of synthesized peptide (observation); format: physicochemical; settings: qualitative; peptide therefore not tested in the enzymatic assay
Source text: as §1

[3] = target: T1, PTP1B; settings: JAK2-derived phosphopeptide as PTP1B substrate; cited from earlier work
Source text: as §1, with “With the ex ...” for “(Table 1).”

Substance	kcat/Km [1]	Km ([1]; read-out: Km) [µM]	also measured
DNEDVpYTFKTP [Peptide 3, Predicted PTP1B phosphopeptide substrate from GAB2, pY site 293]	9.2 ± 1.6 ×10^−5 M^−1 s^−1	17.1 ± 4.1	
DPSDNpYAEPID [Peptide 1, Predicted PTP1B phosphopeptide substrate from ARHGAP5, pY site 1090]	11.6 ± 3.4 ×10^−5 M^−1 s^−1	28.5 ± 5	
EEEDIpYEVLPD [Peptide 2, Predicted PTP1B phosphopeptide substrate from SKAP1, pY site 271]	27.9 ± 13.9 ×10^−5 M^−1 s^−1	14.7 ± 3.2	
IEDNEYTARQG [Fyn peptide, synthesized predicted phosphopeptide from Fyn]			solubility [2]: poor solubility
IEDPpYpYGNDSD [Peptide 4, Predicted PTP1B phosphopeptide substrate from ACP1, pY site 133]	8.9 ± 1.1 ×10^−5 M^−1 s^−1	20.1 ± 4.6	
KEpYpYKVK			Km [3]: 12.7 µM; kcat/Km [3]: 0.000232 M⁻¹ s⁻¹
KKKKpYPKK [Peptide 7, reference compound]	Inactive		recognition as substrate by PTP1B (in words) [1]: not recognized; Km [1]: Inactive
LGSRApYPHFCA [Peptide 8]		> 300	recognition as substrate by PTP1B (in words) [1]: recognized it poorly
QENPIpYKSPIN [Peptide 5, Predicted PTP1B phosphopeptide substrate from ITGB1, pY site 783]	7.1 ± 3.0 ×10^−5 M^−1 s^−1	21.7 ± 8.9	
STEPQpYQPGEN [Peptide 6, positive control peptide from Src as known substrate of PTP1B, reference compound]	9.0 ± 3.7 ×10^−5 M^−1 s^−1	29.1 ± 5.3	
